Measurements published in ChEMBL document CHEMBL1201862, “PubChem BioAssay data set” (2004).
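Cultured in 96-well plates, cells were exposed to test compound for 48 hours across five concentrations. At the GI50, growth is halved.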 Active and inactive are the calls of the source. No stated cut-off is given here; in the data, active = GI50 up to about 1.1 µM and inactive = higher.

Key:
Assay in all cases: inhibition of tumour cell growth, NCI panel, 48 h
OVCAR-8 = tested on: OVCAR-8
IGROV-1 = tested on: IGROV-1
OVCAR-5 = tested on: OVCAR-5
DU-145 = tested on: DU-145
NCI-H460 = tested on: NCI-H460
SK-MEL-28 = tested on: SK-MEL-28
BT-549 = tested on: BT-549
HCT-116 = tested on: HCT-116
UACC-257 = tested on: UACC-257
Hs-578T = tested on: Hs-578T
CAKI-1 = tested on: CAKI-1
MDA-MB-231 = tested on: MDA-MB-231
EKVX = tested on: EKVX
NCI-H522 = tested on: NCI-H522
786-0 = tested on: 786-0
LXFL 529 = tested on: LXFL 529
KM-20L2 = tested on: KM-20L2
DLD-1 = tested on: DLD-1
M19-MEL = tested on: M19-MEL
XF498 = tested on: XF498

Measured: GI50

Nc1nc(Cl)nc2c1ncn2C1CCC(CO)O1 (stereo not drawn)
inactive: OVCAR-8 41.6 µM | IGROV-1 > 100 µM | OVCAR-5 > 100 µM | DU-145 > 100 µM | NCI-H460 > 100 µM | SK-MEL-28 > 100 µM | BT-549 > 100 µM | HCT-116 > 100 µM | UACC-257 > 100 µM | Hs-578T > 100 µM | CAKI-1 > 100 µM

CN(C)CCCNC(=O)N/N=C/c1ccccn1
inactive: MDA-MB-231 > 10 µM | OVCAR-8 > 10 µM | IGROV-1 > 10 µM | OVCAR-5 > 10 µM | DU-145 > 10 µM | NCI-H460 > 10 µM | SK-MEL-28 > 10 µM | EKVX > 10 µM | NCI-H522 > 10 µM | HCT-116 > 10 µM | UACC-257 9.42 µM | Hs-578T > 10 µM

CC(C)C[C@@H](NC(=O)[C@@H](Cc1cccc2ccccc12)NC(=O)N1CCOCC1)B(O)O
inactive: MDA-MB-231 50.5 µM | OVCAR-8 > 100 µM | IGROV-1 > 100 µM | OVCAR-5 75.3 µM | DU-145 > 100 µM | NCI-H460 > 100 µM | SK-MEL-28 25.2 µM | BT-549 36.3 µM | HCT-116 33.2 µM | UACC-257 > 100 µM | Hs-578T 40.5 µM | CAKI-1 72.8 µM

COC(=O)C1=CSC2(S1)C(C(=O)OC)=CSc1c2ssc1=O (stereo not drawn)
inactive: MDA-MB-231 1.85 µM | OVCAR-8 2.34 µM | IGROV-1 1.66 µM | OVCAR-5 8.15 µM | DU-145 1.73 µM | NCI-H460 6.15 µM | SK-MEL-28 1.97 µM | EKVX 5.98 µM | BT-549 2.7 µM | NCI-H522 1.49 µM | HCT-116 1.61 µM | UACC-257 1.87 µM | Hs-578T 2.36 µM | CAKI-1 2.11 µM | 786-0 1.57 µM

CN(C)/C(=N\C#N)NCc1ccccc1
inactive: OVCAR-8 > 100 µM | LXFL 529 > 100 µM | IGROV-1 > 100 µM | KM-20L2 > 100 µM | NCI-H460 > 100 µM | SK-MEL-28 > 100 µM | EKVX > 100 µM | DLD-1 > 100 µM | NCI-H522 > 100 µM | HCT-116 > 100 µM | UACC-257 > 100 µM | CAKI-1 > 100 µM | M19-MEL > 100 µM | 786-0 > 100 µM

O=c1ccc2nc3cc(Br)ccc3sc-2c1
inactive: LXFL 529 89.7 µM | IGROV-1 > 100 µM | OVCAR-5 > 100 µM | KM-20L2 > 100 µM | NCI-H460 > 100 µM | SK-MEL-28 > 100 µM | EKVX > 100 µM | DLD-1 82.8 µM | NCI-H522 56.8 µM | HCT-116 > 100 µM | UACC-257 > 100 µM | CAKI-1 32.3 µM | M19-MEL 55.1 µM

CCCCC(=O)c1c(O)nc2sccn2c1=O
inactive: MDA-MB-231 > 10 µM | OVCAR-8 > 10 µM | IGROV-1 > 10 µM | OVCAR-5 > 10 µM | DU-145 > 10 µM | NCI-H460 > 10 µM | SK-MEL-28 > 10 µM | EKVX > 10 µM | NCI-H522 > 10 µM | HCT-116 > 10 µM | Hs-578T > 10 µM | CAKI-1 > 10 µM

CNC(=O)CNC(=O)CCC(=O)N(C)C
inactive: MDA-MB-231 > 100 µM | OVCAR-8 > 100 µM | IGROV-1 > 100 µM | OVCAR-5 > 100 µM | DU-145 > 100 µM | NCI-H460 > 100 µM | SK-MEL-28 > 100 µM | EKVX > 100 µM | BT-549 > 100 µM | NCI-H522 > 100 µM | HCT-116 > 100 µM | UACC-257 > 100 µM | Hs-578T > 100 µM | CAKI-1 > 100 µM | 786-0 > 100 µM

[O-][n+]1c2c([n+]([O-])c3ccccc31)-c1cccc3cccc-2c13
inactive: MDA-MB-231 33 µM | OVCAR-8 > 100 µM | DU-145 > 100 µM | NCI-H460 91.2 µM | NCI-H522 65.9 µM | HCT-116 > 100 µM | UACC-257 > 100 µM | Hs-578T 32.9 µM

O=C1C(=Cc2cccc(O)c2)N=C(c2ccccc2)N1n1c(-c2ccccc2)nc2ccccc2c1=O
inactive: MDA-MB-231 36.9 µM | OVCAR-8 31.4 µM | IGROV-1 20.7 µM | OVCAR-5 37.1 µM | DU-145 27.7 µM | NCI-H460 23.6 µM | SK-MEL-28 25.2 µM | EKVX 34.9 µM | NCI-H522 17.1 µM | HCT-116 17.5 µM | UACC-257 29 µM | Hs-578T 14.3 µM | CAKI-1 24.7 µM | 786-0 39.8 µM

COc1cc2c(cc1OC)CCN=C2
inactive: MDA-MB-231 > 100 µM | OVCAR-8 > 100 µM | IGROV-1 > 100 µM | OVCAR-5 > 100 µM | DU-145 > 100 µM | NCI-H460 66.5 µM | SK-MEL-28 > 100 µM | BT-549 > 100 µM | HCT-116 > 100 µM | UACC-257 > 100 µM | Hs-578T > 100 µM | CAKI-1 > 100 µM

CN(C)C(=O)OCOC(=O)N(C)C
inactive: XF498 > 100 µM | OVCAR-8 > 100 µM | IGROV-1 > 100 µM | OVCAR-5 > 100 µM | KM-20L2 > 100 µM | NCI-H460 > 100 µM | SK-MEL-28 > 100 µM | EKVX > 100 µM | DLD-1 > 100 µM | NCI-H522 > 100 µM | HCT-116 > 100 µM | CAKI-1 > 100 µM | M19-MEL > 100 µM

CSc1nc(Cl)c2c(n1)Sc1ncnn1C2O (stereo not drawn)
inactive: MDA-MB-231 16.1 µM | OVCAR-8 2.82 µM | IGROV-1 18.9 µM | OVCAR-5 17.7 µM | DU-145 7.08 µM | NCI-H460 21 µM | SK-MEL-28 29.2 µM | EKVX 17.2 µM | BT-549 11.4 µM | NCI-H522 2.43 µM | HCT-116 5.12 µM | UACC-257 19.5 µM | Hs-578T 5.09 µM | CAKI-1 12.7 µM | 786-0 2.66 µM

O=C(CCC1C(=O)NC(=S)NC1=O)c1ccc2ccccc2c1
inactive: OVCAR-8 > 100 µM | LXFL 529 > 100 µM | IGROV-1 > 100 µM | OVCAR-5 > 100 µM | KM-20L2 > 100 µM | NCI-H460 > 100 µM | SK-MEL-28 > 100 µM | EKVX > 100 µM | DLD-1 > 100 µM | NCI-H522 14.8 µM | HCT-116 > 100 µM | UACC-257 > 100 µM | CAKI-1 > 100 µM | M19-MEL > 100 µM | 786-0 > 100 µM

C[n+]1c(-c2ccc(/C=N/Nc3n[nH]c(=S)n3N/N=C/c3ccc(-c4cn5ccccc5[n+]4C)cc3)cc2)cn2ccccc21
inactive: MDA-MB-231 > 100 µM | OVCAR-8 > 100 µM | IGROV-1 > 100 µM | OVCAR-5 > 100 µM | NCI-H460 > 100 µM | SK-MEL-28 > 100 µM | EKVX > 100 µM | NCI-H522 > 100 µM | HCT-116 > 100 µM | UACC-257 > 100 µM | Hs-578T > 100 µM | 786-0 > 100 µM
